Literature values as cited in patent US7584087B2, “Structure of protein kinase C theta” (Wyeth, priority 2004, dated 2009).

Legend:
Conditions in all cases: result in words, from Meggio et al. 1995
[1] = system: casein kinase 1 (CK1)
[2] = system: PKC isoforms
[3] = system: mitogen-activated protein kinase (MAPK)
[4] = system: casein kinase 2 (CK2)
[5] = molecular target: CSK (Homo sapiens, UniProt P41240)
CSK, sequence (P41240 whole entry, species assumed): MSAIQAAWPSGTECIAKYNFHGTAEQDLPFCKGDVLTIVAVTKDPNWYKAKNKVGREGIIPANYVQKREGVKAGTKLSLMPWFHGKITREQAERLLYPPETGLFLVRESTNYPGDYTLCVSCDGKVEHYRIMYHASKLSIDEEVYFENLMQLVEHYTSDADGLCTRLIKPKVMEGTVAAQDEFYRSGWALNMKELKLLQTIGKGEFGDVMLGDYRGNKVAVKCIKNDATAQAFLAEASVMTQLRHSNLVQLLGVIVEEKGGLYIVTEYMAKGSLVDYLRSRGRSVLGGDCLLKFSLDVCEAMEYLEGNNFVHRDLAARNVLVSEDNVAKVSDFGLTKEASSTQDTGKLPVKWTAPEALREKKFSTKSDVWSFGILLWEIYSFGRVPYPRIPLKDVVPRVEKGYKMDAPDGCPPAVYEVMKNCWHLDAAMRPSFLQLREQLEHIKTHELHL

CN[C@@H]1C[C@H]2O[C@@](C)([C@@H]1OC)n1c3ccccc3c3c4c(c5c6ccccc6n2c5c31)C(=O)NC4 [Staurosporine, staurosporine]
potency against casein kinase 1 (CK1) [1]: micromolar
potency against PKC isoforms [2]: low nanomolar
potency against mitogen-activated protein kinase (MAPK) [3]: micromolar
potency against casein kinase 2 (CK2) [4]: micromolar
potency against CSK [5]: micromolar
